Laboratory results taken from patent US20040229848A1, “Glutaminyl based DP IV-inhibitors” (priority 2003, published 2004).

Biological target: glutaminyl cyclase (QC) (Homo sapiens, UniProt Q16769)
Assay: not given
Conditions: not given

glutaminyl cyclase (QC), sequence (Q16769 29-361): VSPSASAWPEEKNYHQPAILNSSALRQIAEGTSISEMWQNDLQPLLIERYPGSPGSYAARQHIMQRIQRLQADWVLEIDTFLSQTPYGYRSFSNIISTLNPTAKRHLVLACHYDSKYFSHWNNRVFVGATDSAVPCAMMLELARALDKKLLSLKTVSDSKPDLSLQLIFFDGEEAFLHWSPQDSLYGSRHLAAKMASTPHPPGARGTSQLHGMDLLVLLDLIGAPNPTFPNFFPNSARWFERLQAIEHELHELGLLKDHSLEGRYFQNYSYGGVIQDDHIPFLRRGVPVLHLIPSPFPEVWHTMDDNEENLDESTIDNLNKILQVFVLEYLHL

In the case of `NC(=O)CC[C@H](N)C(=O)N1CCSC1` [glutaminyl thiazolidine], the “degradation by glutaminyl cyclase” value is reported as “degraded to the pyro-glutaminyl-thiazolidine”.

With `NC(=O)CC[C@H](N)C(=O)N1CCSC1` [glutaminyl thiazolidine] the “half-life in the presence of QC” value was “reduced”.

Same assay, conditions: case (c): 2.6*10^−5 M glutaminyl thiazolidine, 54 mU QC and 0.4 mM inhibitor

With `c1ccc2[nH]cnc2c1` [benzimidazole] the “reaction rate of H-Gly-Pro-pNA hydrolysis after addition of the QC inhibitor” value was “the reaction rate goes down as low as in case (a)”.

Biological target: DPIV (Homo sapiens, UniProt P27487)
Assay: DPIV activity assay, hydrolysis of H-Gly-Pro-pNA
Conditions: 0.4 mM H-Gly-Pro-pNA, 0.65 mU DPIV, 0.04 M Hepes pH 7.6, 30° C.; 2.6*10^−5 M glutaminyl thiazolidine
Procedure: All assays were performed at 30° C. using the Sunrise reader for microplates (TECAN). […] Additionally, samples contained either
a) 2.6*10^−5 M glutaminyl thiazolidine (open circles), or
Otherways, reactions were started by addition of a mixture of H-Gly-Pro-pNA and glutaminyl thiazolidine. Reactions were followed by monitoring the decrease in absorbance at 400 nm.

DPIV, sequence (P27487 whole entry): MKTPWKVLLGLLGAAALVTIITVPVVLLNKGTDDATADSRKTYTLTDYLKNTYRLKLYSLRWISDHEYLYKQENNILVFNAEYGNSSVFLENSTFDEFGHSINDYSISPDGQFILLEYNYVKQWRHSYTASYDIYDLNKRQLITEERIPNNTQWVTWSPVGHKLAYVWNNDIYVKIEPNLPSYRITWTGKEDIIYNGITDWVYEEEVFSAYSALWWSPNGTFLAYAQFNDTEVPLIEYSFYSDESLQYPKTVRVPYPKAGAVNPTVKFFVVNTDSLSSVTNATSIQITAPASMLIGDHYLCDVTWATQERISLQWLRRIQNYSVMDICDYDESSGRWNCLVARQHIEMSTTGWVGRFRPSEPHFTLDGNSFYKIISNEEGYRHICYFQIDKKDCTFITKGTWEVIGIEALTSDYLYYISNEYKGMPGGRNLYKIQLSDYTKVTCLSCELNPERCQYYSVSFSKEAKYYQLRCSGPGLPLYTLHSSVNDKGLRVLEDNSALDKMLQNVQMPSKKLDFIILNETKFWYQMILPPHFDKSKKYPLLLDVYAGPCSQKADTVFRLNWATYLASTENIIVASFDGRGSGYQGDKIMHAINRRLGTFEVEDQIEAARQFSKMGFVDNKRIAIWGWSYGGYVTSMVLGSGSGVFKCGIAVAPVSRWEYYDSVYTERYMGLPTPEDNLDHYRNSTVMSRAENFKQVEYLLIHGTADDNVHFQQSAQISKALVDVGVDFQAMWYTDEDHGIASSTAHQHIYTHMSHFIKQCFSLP

`NC(=O)CC[C@H](N)C(=O)N1CCSC1` [glutaminyl thiazolidine] was tested, and the “inhibition of DPIV (hydrolysis of H-Gly-Pro-pNA)” value was “competitive inhibition”.
In the case of `O=C1CCC(C(=O)N2CCSC2)N1` (centres unmarked) [pyro-glutaminyl-thiazolidine], the “inhibition of DPIV (hydrolysis of H-Gly-Pro-pNA)” value is reported as “not active”.

Biological target: human QC (Homo sapiens, UniProt Q16769)
Assay: Inhibition of the human QC (glutaminyl cyclase) catalyzed reaction, Ki determination
Conditions: not given

human QC, sequence (Q16769 29-361): as the sequence (Q16769 29-361) above

Point of comparison: `Cc1c(C(=O)CCn2ccnc2)sc2ccccc12` [3-(1H-imidazol-1-yl)-1-(3-methylbenzo[b]thiophene-2-yl)propan-1-one], Ki 2.5 ± 0.1 µM. Against it:
- O=C1CNC(=S)N1CCCn1ccnc1 [3-[3-(1H-imidazol-1-yl)propyl]-2-thioxoimidazolidin-4-one] — 6.1-fold lower, 0.41 ± 0.01 µM
- O=C(C(=O)n1ccnc1)n1ccnc1 [oxalic acid dilmidazolidide] — 31-fold higher, 78 ± 2 µM
- c1ccn2cncc2c1 [Imidazo[1.5a]pyridine] — 14-fold higher, 35.6 ± 0.5 µM
- COC(=O)[C@@H](NC(=O)[C@@H](N)CCC(=O)Nn1ccnc1)C(C)C [Methyl (2S)-2-{[(28)-2-amino-5-(1H-imidazol-1-ylamino)-5-oxopentanoyl]amino}-3-methylbutanoate] — 66-fold higher, 164 ± 4 µM
- O=C(Nc1ccccc1C(=O)NCCCn1ccnc1)c1ccc([N+](=O)[O-])o1 [5-nitro-2-[2-([{3-(1H-imidazol-1-yl-)propyl}amino]carbonyl)phenyl]furamide] — 2.6-fold higher, 6.6 ± 0.4 µM
- S=C(NCCn1ccnc1)Nc1ccc(Cl)cc1 [N-(4-chlorophenyl)-N′-[2-(1H-imidazol-1-yl)ethyl]thiourea] — 1.5-fold lower, 1.65 ± 0.07 µM
- Cn1ccnc1 [1-methylimidazole] — 12-fold higher, 30 ± 1 µM
- COC(=O)[C@H](C)NC(=O)C1CCC(Cn2ccnc2)N1 (some centres unmarked) [2-[(5-imidazol-1-ylmethyl-pyrrolidine-2-carbonyl)-amino]-propionic acid methyl ester] — 13-fold higher, 32.2 ± 0.7 µM
- CCCC1C(=O)OCC1Cc1cncn1C (centres unmarked) [4-[(1-methyl-1H-imidazol-5-yl)methyl]-3-propyldihydrofuran-2-(3H)-one] — 2.7-fold higher, 6.7 ± 0.3 µM
- O=C(O)c1ccc(OCCn2ccnc2)cc1 [4-[2-(1H-imidazol-1-yl)-ethoxy]benzoic acid] — within 1.5-fold, 3.4 ± 0.1 µM

Same assay, conditions: QC inhibition by L-histamine and its two biological metabolites (Table 4)

For `Cn1cnc(CCN)c1` [1-methyl-4-(β-aminoethyl)-imidazole], the “Ki value (mM)” value was “n.i”.

Same assay, conditions: human QC catalyzed reaction; 30° C. in 0.05 M Tris-HCl pH 8.0, containing 5 mM EDTA

For `c1ccc(-c2nc[nH]c2-c2ccccc2)cc1` [4,5-diphenyl-imidazole], the “Ki-value (mM)” value was “no inhibition”.
With `O=S(=O)(n1ccnc1)n1ccnc1` [1,1′-sulfonyldiimidazole] the “Ki-value (mM)” value was “no inhibition”.
With `N#Cc1nc[nH]c1C#N` [4,5-dicyanoimidazole] the “Ki-value (mM)” value was “no inhibition”.
For `c1ccc(-n2ccnc2)cc1` [1-phenylimidazole], the “Ki-value (mM)” value was “no inhibition”.
With `Clc1nc2ccccc2[nH]1` [2-chioro-1H-benzimidazole] the “Ki-value (mM)” value was “no inhibition”.

Same assay, conditions: read-out: Ki value; QC inhibition by L-histamine and its two biological metabolites (Table 4)

Point of comparison: `Cn1cncc1CCN` [3-methyl-4-(β-aminoethyl)-imidazole], Ki 120 ± 4 µM. Against it:
- NCCc1c[nH]cn1 [L-histamine] — 7.1-fold higher, 850 ± 40 µM

Same assay, conditions: read-out: Ki-value; human QC catalyzed reaction; 30° C. in 0.05 M Tris-HCl pH 8.0, containing 5 mM EDTA

Point of comparison: `Cc1nc[nH]c1CO` [5-hydroxymethyl-4-methyl-imidazole], Ki 129 ± 5 µM. Against it:
- CCc1nc(C)c[nH]1 [2-ethyl-4-methyl-imidazole] — 4.5-fold higher, 580 ± 40 µM
- C[Si](C)(C)n1ccnc1 [N-(trimethylsilyl)-imidazole] — within 1.5-fold, 167 ± 7 µM
- NCCc1c[nH]cn1 [L-histamine] — 6.6-fold higher, 850 ± 40 µM
- Nc1nc2ccccc2[nH]1 [2-aminobenzimidazole] — 14-fold higher, 1800 ± 100 µM
- C=Cn1ccnc1 [1-vinylimidazole] — 2.6-fold lower, 49 ± 2 µM
- CC(=O)n1ccnc1 [N-acetylimidazole] — within 1.5-fold, 107 ± 3 µM
- N[C@H](CO)Cc1c[nH]cn1 [L-histidinol] — 12-fold higher, 1530 ± 120 µM
- N[C@@H](Cc1c[nH]cn1)C(=O)O [L-histidine] — 34-fold higher, 4400 ± 200 µM
- NCCCn1ccnc1 [1-(3-aminopropyl)-imidazole] — 3.2-fold higher, 410 ± 10 µM
- O=Cc1c[nH]cn1 [4-imidazole-carboxaldehyde] — 59-fold higher, 7600 ± 700 µM
- Cc1nc2ccccc2[nH]1 [2-methyl-benzylimidazole] — within 1.5-fold, 165 ± 4 µM
- O=C(Cn1ccnc1)c1ccccc1 [1-(2-oxo-2-phenyl-ethyl)-imidazole] — within 1.5-fold, 184 ± 5 µM
- NC(=O)c1[nH]cnc1N [4-amino-imidazole-5-carbonic acid amide] — 120-fold higher, 15500 ± 500 µM
- COC(=O)c1c[nH]cn1 [imidazole-4-carbonic acid methylester] — 110-fold higher, 14500 ± 600 µM
- O=C(c1ccccc1)n1ccnc1 [N-benzoylimidazole] — within 1.5-fold, 174 ± 7 µM
- NC(=O)[C@@H](N)Cc1c[nH]cn1 [L-histidinamide] — 4.3-fold higher, 560 ± 40 µM
